# Target: Carbonic anhydrase 6 (Homo sapiens, UniProt P23280)
# Sequence (P23280 whole entry): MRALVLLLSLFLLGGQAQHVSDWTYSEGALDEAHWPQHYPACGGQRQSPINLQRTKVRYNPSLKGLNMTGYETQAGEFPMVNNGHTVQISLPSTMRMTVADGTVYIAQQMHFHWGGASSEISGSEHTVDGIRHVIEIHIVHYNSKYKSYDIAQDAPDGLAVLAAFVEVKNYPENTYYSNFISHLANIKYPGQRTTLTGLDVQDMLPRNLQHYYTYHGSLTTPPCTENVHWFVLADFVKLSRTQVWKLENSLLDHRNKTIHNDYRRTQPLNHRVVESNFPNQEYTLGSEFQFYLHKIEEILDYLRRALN
row,Ki [µM],SMILES
1,0.094,Cc1ccc(-c2cc(C(F)(F)F)nn2-c2ccc(S(N)(=O)=O)cc2)cc1 [CELECOXIB]

# Target: T1, Carbonic anhydrase 15 (Mus musculus, UniProt Q99N23)
# T1 sequence (Q99N23 whole entry): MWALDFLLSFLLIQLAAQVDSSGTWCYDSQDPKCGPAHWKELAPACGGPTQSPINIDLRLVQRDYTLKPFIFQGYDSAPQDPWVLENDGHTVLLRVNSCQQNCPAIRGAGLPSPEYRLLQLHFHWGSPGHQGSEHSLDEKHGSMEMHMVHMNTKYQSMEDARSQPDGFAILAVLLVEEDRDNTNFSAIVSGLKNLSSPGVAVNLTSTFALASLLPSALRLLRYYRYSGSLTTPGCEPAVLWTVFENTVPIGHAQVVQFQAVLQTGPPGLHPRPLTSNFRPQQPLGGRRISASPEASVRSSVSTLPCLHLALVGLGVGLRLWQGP
row,SMILES,Ki [µM]
1,NS(=O)(=O)c1nc2ccc(O)cc2s1,0.064
2,Nc1nnc(S(N)(=O)=O)s1,0.048
3,CCOc1ccc2nc(S(N)(=O)=O)sc2c1 [ETHOXZOLAMIDE],0.058
4,NS(=O)(=O)c1cc(Cl)c(Cl)c(S(N)(=O)=O)c1 [DICHLORPHENAMIDE],0.095
5,NS(=O)(=O)c1nnc(NS(=O)(=O)c2ccccc2)s1 [BENZOLAMIDE],0.07
6,CCN[C@H]1CN(CCCOC)S(=O)(=O)c2sc(S(N)(=O)=O)cc21 [BRINZOLAMIDE],0.061
7,Nc1cc(Cl)c(S(N)(=O)=O)cc1S(N)(=O)=O,0.757
8,Cn1nc(S(N)(=O)=O)sc1=N,0.049
9,NS(=O)(=O)c1nnc(-c2ccccc2Cl)s1,0.06
10,CC(=O)/N=c1/sc(S(N)(=O)=O)nn1C [METHAZOLAMIDE],0.065
11,Nc1ccccc1S(N)(=O)=O,8.81
12,NS(=O)(=O)c1ccc(S(=O)(=O)Nc2cccc3c(Cl)c[nH]c23)cc1,0.072
13,CC1(C)O[C@@H]2[C@@H](CO[C@@]3(COS(N)(=O)=O)OC(C)(C)O[C@@H]23)O1 [TOPIRAMATE],0.078
14,NS(=O)(=O)Cc1noc2ccccc12 [ZONISAMIDE],0.634
15,NNc1ccccc1S(N)(=O)=O,6.9

# Continued, values first:
row,Ki [µM],SMILES
1,0.062,Nc1ccc(S(N)(=O)=O)cc1Cl
2,0.079,Nc1ccc(S(N)(=O)=O)cc1F
3,7.99,Cc1ccc(S(N)(=O)=O)cc1 [P-TOLUENESULFONAMIDE]
4,0.97,NCc1ccc(S(N)(=O)=O)cc1 [MAFENIDE]
5,0.063,Nc1ccc(S(=O)(=O)NCCc2ccc(S(N)(=O)=O)cc2)cc1
6,9.61,Nc1ccc(S(N)(=O)=O)cc1 [SULFANILAMIDE]
7,4.65,NS(=O)(=O)c1ccc(C(=O)O)cc1 [CARZENIDE]
8,4.66,NS(=O)(=O)c1ccc(CCO)cc1
9,0.083,Nc1ccc(S(N)(=O)=O)cc1Br
10,0.049,Nc1ccc(S(=O)(=O)NCc2ccc(S(N)(=O)=O)cc2)cc1
11,0.067,Nc1nccc(Nc2ccc(S(N)(=O)=O)cc2)n1
12,9.54,NNc1ccc(S(N)(=O)=O)cc1
13,4.56,NS(=O)(=O)c1ccc(CO)cc1

# Reference: ChEMBL document CHEMBL1143395, “Cloning, expression, post-translational modifications and inhibition studies on the latest mammalian carbonic anhydrase isoform, CA XV” (J Med Chem, 2009)
